Where two headings read alike, the source gives them in different places.
Experiments:
M4 D = target: T1, M4 D (Homo sapiens, UniProt P08173, A203G/Y113C); experiment: PDSP primary binding M4 D; settings: primary binding, 10,000 nM; last figure of the line = mean of the 4 before it; read-out: M4 D, PDSP raw data, mean
T1 construct: purchased NIMH Psychoactive Drug Screening Program (PDSP)
T1 sequence (P08173 1-479 Y113C/A203G): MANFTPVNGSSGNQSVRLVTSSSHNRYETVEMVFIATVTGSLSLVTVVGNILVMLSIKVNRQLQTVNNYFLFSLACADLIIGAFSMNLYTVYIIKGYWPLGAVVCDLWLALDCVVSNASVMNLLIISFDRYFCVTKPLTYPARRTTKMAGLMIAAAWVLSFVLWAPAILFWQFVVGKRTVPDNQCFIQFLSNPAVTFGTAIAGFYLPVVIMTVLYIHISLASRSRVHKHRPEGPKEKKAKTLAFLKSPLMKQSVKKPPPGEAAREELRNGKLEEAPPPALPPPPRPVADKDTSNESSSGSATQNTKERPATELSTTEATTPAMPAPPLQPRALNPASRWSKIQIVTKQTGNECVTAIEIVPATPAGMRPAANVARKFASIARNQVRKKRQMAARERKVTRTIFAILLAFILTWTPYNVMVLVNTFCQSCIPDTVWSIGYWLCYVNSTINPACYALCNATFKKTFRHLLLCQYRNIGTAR
Protocol: (§1) To determine if any off-target receptor-binding effects are present, all the novel ligands were sent to the National Institute of Mental Health (NIMH), Psychoactive Drug Screening Program (PDSP). The ligands were screened over a panel of 47 receptors, ion channels, and transporters to determine any other possible interactions with […]. The hERG-binding was also determined. […] No binding of the test compounds to calcium channels was observed. […] It is necessary to screen the compounds for hERG-binding during the early process of drug discovery. The unintentional binding of many drugs to hERG can cause blockade of hERG K+ channels in the heart, which can cause many side effects including cardiac arrhythmias and sudden death. […] All of the α5 imidazodiazepines were tested for hERG-binding.
(§2) The NIMH PDSP assay protocol book [https://kidbdev.med.unc.edu/databases/PDSP%20Protocols%20II%202013-03-28.pdf accessed on 23 April 2023]. describes the protocols for primary and secondary radio-ligand binding assays. These assays were carried out in a final volume of 125 µL per well in the appropriate binding buffer.
(§3) The binding of a ligand to a receptor, ion channel, or transporter was determined in the […] of 10 µM of the appropriate reference compound. […] Plates were incubated in the dark for 90 min at rt, and the reactions were stopped by vacuum filtration onto 0.3% polyethyleneimine (PEI) soaked 96-well filter mats using a 96-well Filtermateharvester. This was followed by three washes with cold PBS buffer. Radioactivity was then counted on a Microbeta counter. Nonlinear regression was used to analyze the data with N = 6 replicates.

Beta3 = target: T2, Beta3 (Homo sapiens, UniProt P13945); experiment: PDSP primary binding Beta3; settings: 1.5 h; primary binding, 10,000 nM; last figure of the line = mean of the 4 before it; read-out: Beta3, PDSP raw data, mean
T2 construct: purchased NIMH Psychoactive Drug Screening Program (PDSP)
Protocol: as §1, §2, §3

A2A = target: T3, A2A (Homo sapiens, UniProt P29274); experiment: PDSP primary binding A2A; settings: primary binding, 10,000 nM; last figure of the line = mean of the 4 before it
T3 construct: purchased NIMH Psychoactive Drug Screening Program (PDSP)
Protocol: as §1, §2, §3

Kainate (Rat Brain) = experiment: PDSP primary binding Kainate (Rat Brain); settings: primary binding, 10,000 nM; last figure of the line = mean of the 4 before it
Protocol: as §1, §2, §3

D1 = target: T4, D1 (Homo sapiens, UniProt P21728); experiment: PDSP primary binding D1; settings: 1.5 h; primary binding, 10,000 nM; last figure of the line = mean of the 4 before it; read-out: D1, PDSP raw data, mean
T4 construct: purchased NIMH Psychoactive Drug Screening Program (PDSP)
Protocol: as §1, §2, §3

M1 = target: T5, M1 (Homo sapiens, UniProt P11229); experiment: PDSP primary binding M1; settings: primary binding, 10,000 nM; last figure of the line = mean of the 4 before it; read-out: M1, PDSP raw data, mean
T5 construct: purchased NIMH Psychoactive Drug Screening Program (PDSP)
T5 sequence (P11229 1-460): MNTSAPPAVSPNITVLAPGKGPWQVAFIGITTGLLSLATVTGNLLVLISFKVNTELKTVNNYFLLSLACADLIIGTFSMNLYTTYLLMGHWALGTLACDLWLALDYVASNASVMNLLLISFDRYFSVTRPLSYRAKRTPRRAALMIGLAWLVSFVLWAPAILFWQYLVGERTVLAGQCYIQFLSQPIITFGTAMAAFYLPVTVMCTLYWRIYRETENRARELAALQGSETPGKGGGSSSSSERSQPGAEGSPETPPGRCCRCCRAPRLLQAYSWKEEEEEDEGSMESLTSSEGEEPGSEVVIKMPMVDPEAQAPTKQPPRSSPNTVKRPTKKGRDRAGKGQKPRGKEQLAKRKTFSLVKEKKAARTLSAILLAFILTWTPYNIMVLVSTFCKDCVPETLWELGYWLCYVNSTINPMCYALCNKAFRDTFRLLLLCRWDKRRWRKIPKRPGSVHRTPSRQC
Protocol: as §1, §2, §3

DOR = target: T6, DOR (Homo sapiens, UniProt P41143); experiment: PDSP radioligand binding at DOR
T6 construct: purchased NIMH Psychoactive Drug Screening Program (PDSP)
From the text: Opioid receptors are a family of inhibitory G-coupled protein receptors where opioids act as the ligand. The kappa opioid receptors (KOR), µ and δ opioid receptors (MOR and DOR), and nociception opioid receptor (NOP) fall under the family of opioids receptors. It has been reported that oxadiazole imidazodiazepines can mediate analgesic and anti-inflammatory properties mediated also by the κ opioid receptor (KOR). The binding at KOR is usually silent. The affinities of the test compounds for KOR, DOR, and MOR were determined using radioligand binding assays at a screening concentration of 10,000 nM in collaboration with the National Institute of Mental Health’s Psychoactive Drug Screening Program (PDSP), as mentioned before. Concentration-dependent experiments were conducted to determine Ki values for the compounds that exceeded more than 50% radioligand displacement in primary binding assays.
as §2, §3

Alpha4Beta2 (Rat Brain) = target: T7, Alpha4Beta2 (Rat Brain) (Rattus norvegicus, UniProt P09483+P12390); experiment: PDSP primary binding Alpha4Beta2 (Rat Brain); settings: primary binding, 10,000 nM; last figure of the line = mean of the 4 before it; read-out: Alpha4Beta2 (Rat Brain), PDSP raw data, mean
T7 construct: purchased NIMH Psychoactive Drug Screening Program (PDSP)
Protocol: as §1, §2, §3

5-HT6 = target: T8, 5-HT6 (Homo sapiens, UniProt P50406); experiment: PDSP primary binding 5-HT6; settings: 1.5 h; primary binding, 10,000 nM; last figure of the line = mean of the 4 before it; read-out: 5-HT6, PDSP raw data, mean
T8 construct: purchased NIMH Psychoactive Drug Screening Program (PDSP)
Protocol: as §1, §2, §3

5-HT7A = target: T9, 5-HT7A (Homo sapiens, UniProt P34969); experiment: PDSP primary binding 5-HT7A; settings: 1.5 h; primary binding, 10,000 nM; last figure of the line = mean of the 4 before it; read-out: 5-HT7A, PDSP raw data, mean
T9 construct: purchased NIMH Psychoactive Drug Screening Program (PDSP)
Protocol: as §1, §2, §3

[1] = at 10,000 nM, N = 5, [3H]-DADLE 2.69 nM, read-out: Primary Binding %DOR
[2] = primary binding, 10,000 nM, last figure of the line = mean of the 4 before it, read-out: DOR, PDSP raw data, mean

T2 sequence (P13945 whole entry): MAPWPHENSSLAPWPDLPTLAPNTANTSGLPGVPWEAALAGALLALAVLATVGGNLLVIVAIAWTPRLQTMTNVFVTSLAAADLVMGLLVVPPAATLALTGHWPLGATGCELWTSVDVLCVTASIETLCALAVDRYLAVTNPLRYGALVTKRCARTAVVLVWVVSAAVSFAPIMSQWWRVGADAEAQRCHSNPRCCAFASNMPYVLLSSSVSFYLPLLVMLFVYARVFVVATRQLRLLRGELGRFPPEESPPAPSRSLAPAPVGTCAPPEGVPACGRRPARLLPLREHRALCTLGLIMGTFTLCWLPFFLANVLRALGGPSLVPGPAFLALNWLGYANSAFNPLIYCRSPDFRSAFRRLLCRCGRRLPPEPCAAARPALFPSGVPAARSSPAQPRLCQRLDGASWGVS
T8 sequence (P50406 whole entry): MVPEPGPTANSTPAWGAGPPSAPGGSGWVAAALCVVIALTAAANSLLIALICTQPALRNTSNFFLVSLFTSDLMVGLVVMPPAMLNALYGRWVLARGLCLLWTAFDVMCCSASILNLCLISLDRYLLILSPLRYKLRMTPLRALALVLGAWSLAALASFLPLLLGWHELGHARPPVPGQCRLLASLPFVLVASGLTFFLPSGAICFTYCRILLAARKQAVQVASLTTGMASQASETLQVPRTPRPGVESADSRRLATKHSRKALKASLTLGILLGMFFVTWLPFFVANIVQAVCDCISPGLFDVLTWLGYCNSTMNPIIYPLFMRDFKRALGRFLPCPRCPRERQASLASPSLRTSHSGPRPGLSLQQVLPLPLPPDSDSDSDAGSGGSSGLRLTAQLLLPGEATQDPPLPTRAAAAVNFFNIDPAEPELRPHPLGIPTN
T3 sequence (P29274 whole entry): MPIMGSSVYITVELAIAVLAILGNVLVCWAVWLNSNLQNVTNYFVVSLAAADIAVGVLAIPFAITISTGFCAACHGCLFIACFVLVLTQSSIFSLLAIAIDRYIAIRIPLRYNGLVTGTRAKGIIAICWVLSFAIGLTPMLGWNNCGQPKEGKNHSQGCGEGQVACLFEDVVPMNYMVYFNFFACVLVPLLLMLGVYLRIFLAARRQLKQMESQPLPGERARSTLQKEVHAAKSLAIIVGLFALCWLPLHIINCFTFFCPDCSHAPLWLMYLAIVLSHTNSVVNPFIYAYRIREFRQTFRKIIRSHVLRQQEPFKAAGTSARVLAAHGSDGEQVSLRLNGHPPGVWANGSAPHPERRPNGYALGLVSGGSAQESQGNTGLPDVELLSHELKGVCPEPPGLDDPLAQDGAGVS
T9 sequence (P34969 1-445 isoform P34969-2): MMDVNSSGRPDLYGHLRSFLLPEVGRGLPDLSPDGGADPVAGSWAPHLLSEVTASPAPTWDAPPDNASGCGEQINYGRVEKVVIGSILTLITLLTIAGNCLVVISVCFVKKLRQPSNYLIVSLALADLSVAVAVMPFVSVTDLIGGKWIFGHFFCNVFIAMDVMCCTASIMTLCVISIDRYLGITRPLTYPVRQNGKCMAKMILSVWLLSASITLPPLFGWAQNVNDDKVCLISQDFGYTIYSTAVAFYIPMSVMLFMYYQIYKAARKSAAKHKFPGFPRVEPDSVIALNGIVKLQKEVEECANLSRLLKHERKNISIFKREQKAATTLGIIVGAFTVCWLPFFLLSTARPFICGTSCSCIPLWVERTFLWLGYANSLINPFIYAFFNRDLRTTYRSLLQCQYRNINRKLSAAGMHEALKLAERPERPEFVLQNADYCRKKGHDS
T7 sequence (P09483 31-630): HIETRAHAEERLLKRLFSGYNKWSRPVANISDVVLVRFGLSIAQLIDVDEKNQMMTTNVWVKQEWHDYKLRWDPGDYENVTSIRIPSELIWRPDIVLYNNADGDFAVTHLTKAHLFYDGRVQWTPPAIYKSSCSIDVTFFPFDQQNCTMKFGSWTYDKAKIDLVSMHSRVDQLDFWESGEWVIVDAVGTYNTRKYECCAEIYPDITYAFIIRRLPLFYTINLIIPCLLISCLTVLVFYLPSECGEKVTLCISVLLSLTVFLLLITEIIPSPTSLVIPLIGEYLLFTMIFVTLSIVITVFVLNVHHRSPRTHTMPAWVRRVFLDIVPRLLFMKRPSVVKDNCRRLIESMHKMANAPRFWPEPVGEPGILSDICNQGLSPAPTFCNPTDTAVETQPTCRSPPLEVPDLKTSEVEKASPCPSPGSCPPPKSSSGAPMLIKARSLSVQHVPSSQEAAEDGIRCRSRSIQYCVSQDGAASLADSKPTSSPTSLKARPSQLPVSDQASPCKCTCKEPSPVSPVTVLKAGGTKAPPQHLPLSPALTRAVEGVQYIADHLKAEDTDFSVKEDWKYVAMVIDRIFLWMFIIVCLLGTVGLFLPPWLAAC
T7 sequence (P12390 25-500): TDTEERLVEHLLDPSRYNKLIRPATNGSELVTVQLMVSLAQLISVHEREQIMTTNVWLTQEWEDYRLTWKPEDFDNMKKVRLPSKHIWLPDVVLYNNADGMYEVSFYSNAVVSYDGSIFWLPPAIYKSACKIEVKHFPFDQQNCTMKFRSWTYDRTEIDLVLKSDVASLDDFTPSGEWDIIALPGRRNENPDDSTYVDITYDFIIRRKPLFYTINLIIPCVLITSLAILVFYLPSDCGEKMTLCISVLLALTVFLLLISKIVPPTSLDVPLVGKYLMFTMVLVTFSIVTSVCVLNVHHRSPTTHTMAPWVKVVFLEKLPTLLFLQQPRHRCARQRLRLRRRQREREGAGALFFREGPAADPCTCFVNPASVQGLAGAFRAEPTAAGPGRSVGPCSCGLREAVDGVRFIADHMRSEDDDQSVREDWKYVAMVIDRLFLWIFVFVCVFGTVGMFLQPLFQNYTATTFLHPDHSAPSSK
T6 sequence (P41143 whole entry): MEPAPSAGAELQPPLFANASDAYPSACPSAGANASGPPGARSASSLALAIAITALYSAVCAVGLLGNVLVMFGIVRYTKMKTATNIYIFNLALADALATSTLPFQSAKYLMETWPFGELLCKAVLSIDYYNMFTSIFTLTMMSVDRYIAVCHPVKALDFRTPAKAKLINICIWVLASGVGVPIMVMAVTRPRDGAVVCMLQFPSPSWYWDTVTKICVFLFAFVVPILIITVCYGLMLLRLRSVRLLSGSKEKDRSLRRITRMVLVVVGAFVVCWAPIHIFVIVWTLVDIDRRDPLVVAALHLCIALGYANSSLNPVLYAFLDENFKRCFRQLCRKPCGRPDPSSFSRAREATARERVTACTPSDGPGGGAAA
T4 sequence (P21728 whole entry): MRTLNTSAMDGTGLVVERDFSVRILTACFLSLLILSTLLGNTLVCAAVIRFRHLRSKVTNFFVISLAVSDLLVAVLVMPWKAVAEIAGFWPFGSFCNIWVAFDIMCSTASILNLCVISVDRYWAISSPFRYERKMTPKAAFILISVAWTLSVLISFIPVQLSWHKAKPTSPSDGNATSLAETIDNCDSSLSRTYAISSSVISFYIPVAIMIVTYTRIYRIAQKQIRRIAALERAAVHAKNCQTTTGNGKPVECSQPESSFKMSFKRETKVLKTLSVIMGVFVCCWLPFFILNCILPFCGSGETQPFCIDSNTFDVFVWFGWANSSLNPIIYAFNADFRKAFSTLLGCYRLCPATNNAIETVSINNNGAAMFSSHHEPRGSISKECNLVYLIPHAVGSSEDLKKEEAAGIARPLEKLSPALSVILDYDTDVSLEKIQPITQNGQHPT

SMILES | inhibition at 10 µM (M4 D) | inhibition at 10 µM (Beta3) | A2A, PDSP raw data, mean (A2A) | Kainate (Rat Brain), PDSP raw data, mean (Kainate (Rat Brain)) | inhibition at 10 µM (D1) | inhibition at 10 µM (M1) | inhibition at 10 µM (DOR; [1]) | inhibition at 10 µM (DOR; [2]) | inhibition at 10 µM (Alpha4Beta2 (Rat Brain)) | inhibition at 10 µM (5-HT6) | inhibition at 10 µM (5-HT7A)
C#Cc1ccc2c(c1)C(c1ccccn1)=N[C@@H](C)c1c(C(=O)NC)ncn1-2 [Compound 23, (S)-8-Ethynyl-N,4-dimethyl-6-(pyridin-2′-yl)-4H-benzo[f]imidazo[1,5-a][1,4]diazepine-3-carboxamide] | 50.5% | 0.63% | -9.74% | 37.08% | -37.2% | -12% | 14.9 ± 8.84% | 14.9% | 2.71% | 18.1% | -13.5%
C[C@H]1N=C(c2ccccc2F)c2cc(-c3ccccc3)ccc2-n2cnc(C(=O)N(C)C)c21 [Compound 5, (R)-6-(2′-Fluorophenyl)-N,N,4-trimethyl-8-phenyl-4H-benzo[f]imidazo[1,5-a][1,4]diazepine-3-carboxamide] | 27.2% | -19.4% | 11.57% | 3.43% | -35.4% | -1.6% | 43 ± 7.83% | 43% | -5.7% | 24.6% | 4.31%
C#Cc1ccc2c(c1)C(c1ccccn1)=N[C@@H](C)c1c(C(=O)N(C)C)ncn1-2 [Compound 31, (S)-8-Ethynyl-N,N,4-trimethyl-6-(pyridin-2′-yl)-4H-benzo[f]imidazo[1,5-a][1,4]diazepine-3-carboxamide] | 56.8% | -6.68% | -10.83% | 23.99% | -41.5% | -20% | 6.18 ± 11.2% | 6.18% | 2.48% | 18.1% | -9.64%

Source: paper PMC10303271, “Synthesis and Receptor Binding Studies of α5 GABAAR Selective Novel Imidazodiazepines Targeted for Psychiatric and Cognitive Disorders” (Molecules, 2023)
